Measured values: patent US10912767B2, “Anthracycline prodrugs and methods of making and using the same” (THE REGENTS OF THE UNIVERSITY OF COLORADO, priority 2015, dated 2021)
Where two headings read alike, the source gives them in different places.

Assays:
[1] = system: NCI/ADR-RES multi-drug resistant ovarian cancer cell line; assay: Tumor cell growth inhibition, crystal violet (Example 2); type: cell-based; settings: for IC50: read-out: IC50
Source text: (§1) In order to investigate the photolysis of the drugs in a system amenable to cell culture use, a custom UV irradiation apparatus was constructed, consisting of 3 small blacklight fluorescent bulbs (Southern New England Ultraviolet Co., λmax=350 nm) set between two ring stands and suspended at a height of 11.5 cm. The bulbs' housing was reflective aluminum so as to direct as much UV irradiation as possible downward toward the plate. Upon installation in sterile cell culture hood, the power of the system was measured at approximately 6-7 mW using a Scientech laser power meter. Prior to experimentation, the hood and irradiation apparatus was sterilized with 254 nm germicidal UV irradiation overnight. Using this setup, 100 μM of 4,5-dimethoxy-2-nitrobenyl alcohol (DMNA), photodoxazolidine R═H, and glucose-PEG-photodoxazoldine were irradiated in individual wells of a 24-well plate. Initially, 50 μL of a DMSO stock was diluted with 950 μL of PBS and aliquots of 50 μL were removed at various times (0-180 min), mixing by pipetting each time. The timepoints were analyzed by HPLC (method 2) and plotted as fractional conversion versus time. […] Therefore, a second experiment was performed in which the PBS was replaced with 1:1 acetonitrile:water. With this system of 5% DMSO/47.5% acetonitrile/47.5% water, no visible precipitation was produced over the course of the reaction.
(§2) The ovarian carcinoma line NCl/ADR-RES (ADR) was grown in high-glucose Dulbecco's Modified Eagle Medium (DMEM) supplemented with 10% fetal bovine serum (FBS), 200 units/mL of penicillin and 200 μg/mL of streptomycin. The breast carcinoma line MDA-MB-231 was cultured in low-glucose DMEM with the same additives. Both lines were maintained in a humidified incubator with 5% CO2/95% air at 37° C. UV irradiations were performed with the apparatus described above.
(§3) Growth inhibition experiments were performed by seeding cells into 96-well plates or 24-well plates at densities of 1000-1500 cells per well or 8000 cells per well, respectively, and allowing the cells to adhere overnight. The media was then replaced with a range of aqueous concentrations of the drug in question and allowed to incubate at 37° C. with the cells for a span of time (Inc1) which ranged from 1 min to 48 hours. Irradiation was performed at room temperature with the plate's lid removed and ranged from 1 to 30 min. In some experiments, the drug solution was removed following Inc1 and irradiated in clean media or PBS. Following irradiation, the cells were placed back into the 37° C. incubator for a second period of incubation (Inc2), which varied between 1 min and 24 h, prior to replacement with fresh media. Plates which received no irradiation but identical treatment otherwise were done in parallel. The cells were then grown until the no-drug control wells reached approximately 80% confluence or 5 days, whichever was shorter. […] The cells were fixed with 5% formalin in PBS, stained with crystal violet, washed with tap water, and air-dried. The stain was resolubilized in 50% isopropyl alcohol, 50% H2O containing 2% (w/v) SDS. The staining density was read on a multiwell plate reader at 588-600 nm. Percentage cell density was calculated relative to the irradiated no-drug control wells, plotted as a function of drug concentration, and fit using non-linear least squared analysis with a variable-slope dose response model in GraphPad Prism 5.0 software.
(§4) Although the introduction of a long-pass glass filter between the light source and the plate alleviated this effect to a small extent, a maximum irradiation time of 10 min was settled upon. […] Since a media change at that point would remove the cells as well, the re-adherence of the cell population was accomplished by the addition of a large volume (200 μL) of complete media following Inc2, and overnight incubation. Then, a full media change was done to remove the drug. […]

[2] = system: MDA-MB-231 breast cancer cells; assay: as above; type: cell-based, human; settings: for IC50: read-out: IC50
Source text: as §1, §2, §3, §4

[3] = system: orthotopic MDA-MB-231 human breast tumor xenografts; assay: In vivo mouse efficacy, tumor bioluminescence; parameters: species or system nude mice; settings: 4 mg/kg dox equivalent iv + 18-FDG ip, weekly x6
Experimental: (§5) For reconstitution for intravenous injection into mice, dry photodoxazolidine R═H (23 mg) was dissolved in 785 μL of DMSO for a final concentration of 34.5 mM, labeled “Drug Stock,” and stored dark at −20° C. Shortly before injection, the Drug Stock was thawed and 20-50 μL was transferred to a new tube. To this tube, 6 volumes (relative to the Drug Stock volume) of PEG-400 and 4 volumes of propylene glycol (PG) were added and the solution thoroughly mixed by vortexing. Immediately prior to injection, 9 volumes of saline (0.9% NaCl) was added to the DMSO/PEG/PG solution of photodoxazolidine and mixed by vortexing. […] Therefore, this formulation was used as prepared. This protocol produces a final formulation of 5% DMSO, 30% PEG-400, 20% PG, 45% saline. A standard injection of 100 μL of this formulation delivers 4 mg dox equivalent/kg body weight for a mouse weighing 0.025 kg.
(§6) Luciferase-positive MDA-MB-231 cells were maintained in MEM culture medium supplemented with 10% heat inactivated fetal bovine serum and 2% penicillin/streptomycin. Prior to injection, typsinized cell populations were counted with a Z1 Coulter Particle counter, centrifuged, and resuspended in Hank's Balanced Salt Solution (HBSS) at a concentration of 4.0×10^7 cells/mL. […] Body weight and tumor growth were measured regularly. Tumor growth was measured optically from the bioluminescence signal from injection of luciferin. […]

[4] = In vivo body weight change as indication of toxicity; parameters: species or system nude mice; settings: 4 mg/kg dox equivalent iv weekly x6; photodoxazolidine with 18-FDG ip
Experimental: as §5, §6

Q: What does the source list for COc1cc(COC(=O)N2COC3C(C)OC(OC4CC(O)(C(=O)CO)Cc5c(O)c6c(c(O)c54)C(=O)c4c(OC)cccc4C6=O)CC32)c([N+](=O)[O-])cc1OC (centres unmarked) [Photodoxazolidine]?
A: fold drop of IC50 on near UV irradiation ([1]; 10 min UV vs alone): more than 30 fold; IC50 ([1]; +UV 10 min, near UV 350 nm): 0.11 µM; times more toxic than doxorubicin alone ([1]; prodrug alone): 2-3 times; IC50 ([1]; prodrug alone, no UV): 3.5 ± 0.8 µM; IC50 ([1]; prodrug alone): ~3.5 µM; fold drop of IC50 on near UV irradiation ([2]; MDA-MB-231, 10 min UV vs alone): approximately 22 fold; IC50 ([2]; MDA-MB-231, +UV 10 min, near UV 350 nm): 0.073 µM; IC50 ([2]; MDA-MB-231, prodrug alone, no UV, listed as Photodoxaz): 1.6 ± 0.12 µM; IC50 ([2]; MDA-MB-231, prodrug alone, no UV, listed as photodoxazolidine): ~1.6 µM; tumor bioluminescence [3]: significant reductions in tumor bioluminescence; body weight change [4]: no significant change
